According to patent US20240343747A1, “Heteroaryl compounds as inhibitors of TYK2, composition and application thereof” (Accro Bioscience (HK) Limited, priority 2021, published 2024):

Assays:
[1] = Plasma protein binding test, human; assay type: in vitro ADME; conditions: for plasma protein binding (in words): conclusion from Table 7, all species tested; for fraction unbound at 4 h, 2 μM: human plasma
Protocol: • 1. Test compound and control compound were dissolved in dimethyl sulfoxide (DMSO) to achieve 10 mM stock solutions. DMSO working solutions were prepared at 400 μM. To prepare the loading matrix, compound working solutions (5 μL) were added in a 1:200 ratio to blank matrix (995 μL), and mixed thoroughly. • 2. To prepare the time zero (TO) samples to be used for recovery determination, 50 μL aliquots of loading matrix were transferred in triplicate to the sample collection plate. The samples were immediately matched with opposite blank buffer to obtain a final volume of 100 μL of 1:1 matrix/dialysis buffer (v/v) in each well. 500 μL of stop solution were added to these TO samples. They were then stored at 2-8° C. pending further processes along with other post-dialysis samples. • 3. To load the dialysis device, an aliquot of 150 μL of the loading matrix was transferred to the donor side of each dialysis well in triplicate, and 150 μL of the dialysis buffer was loaded to the receiver side of the well. The dialysis plate was placed in a humidified incubator at 37° C. with 5% CO2 on a shaking platform that rotated slowly (about 100 rpm) for 4 hours • 4. At the end of the dialysis, aliquots of 50 μL of samples were taken from both the buffer side and the matrix side of the dialysis device. These samples were transferred into new 96-well plates. Each sample was mixed with an equal volume of opposite blank matrix (buffer or matrix) to reach a final volume of 100 μL of 1:1 matrix/dialysis buffer (v/v) in each well. All samples were further processed by adding 500 μL of stop solution containing internal standards. The mixture was vortexed and centrifuged at 4000 rpm for about 20 minutes. An aliquot of 100 μL of supernatant of all the samples was then removed for LC-MS/MS analysis • 5. The single blank samples were prepared by transferring […] of blank matrix to a 96 well plate and adding 50 μL of blank PBS buffer to each well. The blank plasma must match the species of plasma used in the plasma side of the well. Then the matrix-matched samples were further processed by adding 500 μL of stop solution containing internal standards, following the same sample processing method as the dialysis samples.
The % Unbound and % Bound were calculated using the following equations:
% Unbound=100×[F]/[T]; % Bound=100−% Unbound
Where [F] is the analyte concentration or peak area ratio of analyte/internal standard on the buffer (receiver) side of the membrane, [T] is the analyte concentration or peak area ratio of analyte/internal standard on the matrix (donor) side of the membrane, and [T0] is the analyte concentration or the peak area ratio of analyte/internal standard in the loading matrix sample at time zero.

hERG channel = hERG channel (Homo sapiens (Human), UniProt Q12809); assay: cell-based
Sequence of hERG channel (Q12809 whole entry): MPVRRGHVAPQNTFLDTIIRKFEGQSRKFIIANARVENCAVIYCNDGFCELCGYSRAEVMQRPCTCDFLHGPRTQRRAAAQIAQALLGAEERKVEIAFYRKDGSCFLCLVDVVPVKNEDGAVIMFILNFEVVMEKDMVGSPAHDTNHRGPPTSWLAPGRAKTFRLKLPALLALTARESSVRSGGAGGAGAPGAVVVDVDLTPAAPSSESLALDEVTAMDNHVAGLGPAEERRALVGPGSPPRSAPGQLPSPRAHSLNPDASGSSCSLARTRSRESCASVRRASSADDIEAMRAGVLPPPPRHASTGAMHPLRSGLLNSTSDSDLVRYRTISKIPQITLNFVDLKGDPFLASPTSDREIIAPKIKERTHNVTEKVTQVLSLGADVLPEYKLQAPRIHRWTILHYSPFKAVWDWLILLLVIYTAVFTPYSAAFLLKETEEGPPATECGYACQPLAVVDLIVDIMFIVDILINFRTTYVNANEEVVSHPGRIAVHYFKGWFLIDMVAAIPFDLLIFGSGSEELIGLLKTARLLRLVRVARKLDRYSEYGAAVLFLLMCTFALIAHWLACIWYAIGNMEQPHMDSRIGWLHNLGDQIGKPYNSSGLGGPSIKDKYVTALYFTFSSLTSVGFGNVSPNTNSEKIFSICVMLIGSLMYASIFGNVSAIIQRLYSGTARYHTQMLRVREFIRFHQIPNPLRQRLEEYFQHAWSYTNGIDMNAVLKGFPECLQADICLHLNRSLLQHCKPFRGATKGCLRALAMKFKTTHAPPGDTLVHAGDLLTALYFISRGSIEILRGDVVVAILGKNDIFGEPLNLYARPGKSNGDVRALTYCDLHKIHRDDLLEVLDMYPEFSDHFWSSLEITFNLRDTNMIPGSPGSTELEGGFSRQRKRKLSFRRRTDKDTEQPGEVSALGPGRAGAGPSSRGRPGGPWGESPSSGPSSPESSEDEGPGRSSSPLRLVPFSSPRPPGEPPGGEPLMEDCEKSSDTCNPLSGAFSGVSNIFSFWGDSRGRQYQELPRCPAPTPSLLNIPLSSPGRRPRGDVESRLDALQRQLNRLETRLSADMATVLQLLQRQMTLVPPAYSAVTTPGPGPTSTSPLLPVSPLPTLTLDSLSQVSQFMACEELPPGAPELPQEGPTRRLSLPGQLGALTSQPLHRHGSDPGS
Protocol: Chinese hamster ovary (CHO) cell line, CHO-hERG cells were used in this study. CHO-hERG cells were derived from Sophion Biosciences Inc. (Ballerup, Denmark) in Suzhou, China. The cell reserve fluid is frozen in liquid nitrogen tanks. Each batch of stored cell fluid is tested for mycoplasma contamination. The cells were no longer used after 30 generations.
The whole cell patch clamp technique was used to record hERG current at room temperature. The patch-clamp amplifier outputs signals through […] conversion and 2.9 KHz low-pass filtering. Data records were collected by Patchmaster Pro software.
Cells were planted in a cell recording tank and placed on an inverted microscope platform. One cell in the recording tank was randomly selected for experiment. The perfusion system was fixed on an inverted microscope platform and cells were continuously irrigated with ECS.
Manual patch clamp recording microelectrode was prepared with capillary glass tube, which was filled with intracellular fluid. On the day of the patch clamp test, the electrodes were prepared using a borosilicate glass tube (GC150TF-10, Harvard Apparatus Co. UK). The resistance is between 2-5 MΩ after the electrode is filled with ICS.
The clamping voltage was −80 mV, and the first step was depolarized to +60 mV for 850 ms to open the hERG channel. The voltage is then set to −50 mV and maintained for 1275 ms, resulting in a rebound current or tail current, the peak of which is measured and used for analysis. Finally, the voltage is restored to the clamping voltage (−80 mV). During the test, the command voltage program was repeated every 15 s.
At the beginning of recording the perfusion of the solvent control working solution, the test substance/positive control working solution to be tested can be poured after monitoring the tail current peak until more than 3 scanning curves are stable, until the inhibition of the test substance/positive control working solution to the hERG current peak reaches a stable state. Generally, the most recent three consecutive peak values of the current curve basically coincide as a criterion to judge whether the state is stable. After reaching a stable state, continue to pour one concentration of the test sample. One or more test subjects/positive controls, or multiple concentrations of the same drug, can be tested on a cell, and the different test subjects/positive controls need to be rinsed with a solvent control working fluid until the hERG current returns to more than 80% of its pre-drug level.
The concentration of positive control cisapride was 0.1 μM, and two cells were repeated.

JAK2/JAK2 pathway = assay: Selectivity: JAK2/JAK2 pathway, TPO-induced p-STAT3 in MEG-1 cells, western blot; assay type: cell-based; conditions: TPO 100 ng/mL
Protocol: MEG-1 cells were digested by trypsin, re-suspended in 1640 medium and counted. The compounds to be measured were added to 6 well plates (1 million/per well) for 2 hours, and then TPO (final concentration: 100 ng/mL) was added to stimulate cells for 30 minutes. The cells were collected and lysed with protein lysate. The protein was quantitatively tested by BCA kit. Finally, p-STAT3/STAT3 and internal reference protein β-actin were detected by western blot.

SMILES	plasma protein binding (in words) [1]	fraction unbound at 4 h, 2 μM [1]	IC50 (hERG channel)	inhibition on hERG channel (in words) (hERG channel)	effect on TPO-induced downstream STAT3 phosphorylation (JAK2/JAK2 pathway)
[2H]C([2H])([2H])n1nc(-c2cccc(Nc3cc(NC(=O)C4CC4)ncc3C(=O)CC)c2OC)cc1P(C)(C)=O [Compound B22]	moderate to high	0.051	> 30 µM	no inhibition	
CCC(=O)c1cnc(NC(=O)C2CC2)cc1Nc1cccc(-c2cc(P(=O)(C3CC3)C3CC3)n(C)n2)c1OC [Compound B37, N-(4-((3-(5-(dicyclopropylphosphoryl)-1-methyl-1H-pyrazol-3-yl)-2-methoxyphenyl)amino)-5-propionylpyridin-2-yl)cyclopropanecarboxamide]			> 30 µM	no inhibition	no effect
CCC(=O)c1cnc(NC(=O)C2CC2)cc1Nc1cccc(-c2cc(P(C)(C)=O)n(C)n2)c1OC [Compound B2, N-(4-((3-(5-(dimethylphosphoryl)-1-methyl-1H-pyrazol-3-yl)-2-methoxyphenyl)amino)-5-propionylpyridin-2-yl)cyclopropanecarboxamide]	moderate to high	0.048	> 30 µM	no inhibition	
[2H]C([2H])([2H])NC(=O)c1nnc(NC(=O)C2CC2)cc1Nc1cccc(-c2cc(P(=O)(C3CC3)C3CC3)n(C)n2)c1OC [Compound B41, 6-(cyclopropanecarboxamido)-4-((3-(5-(dicyclopropylphosphoryl)-1-methyl-1H-pyrazol-3-yl)-2-methoxyphenyl)amino)-N-(methyl-d3)pyridazine-3-carboxamide]	moderate to high	0.084	> 30 µM	no inhibition	no effect
